The values below come from patent publication US20250320246A1, “3-AZASTEROID COMPOUNDS FOR THE TREATMENT OF DISEASES RELATED TO MITROCHONDRIAL FUNCTION” (NZP UK LIMITED, priority 2022, published 2025).

SMILES strings stand for the structures. pEC50: −log10 of the molar value.

Common to all, as to format: cell-based, human
The subject of assay [1] is iNeurons from sPD patients. Nature of the assay: Cellular ATP in iNeurons (dopaminergic neurons derived from sPD patients). The method, then: (§1) The fibroblasts lines and iNPC lines have previously been characterised and published in Carling et al, 2020.
(§2) Briefly, iNPCs are plated in a 6-well plate and cultured for 2 days in DMEM/F-12 medium with Glutamax™ supplemented with 1% NEAA, 2% B27 (Gibco) and 2.5 μM of DAPT. On day 3, DAPT is removed and the medium is supplemented with 1 μM smoothened agonist (SAG) and FGF8 (75 ng/ml) for additional 10 days. Neurons are replated at this stage. Subsequently SAG and FGF8 are withdrawn and replaced with BDNF (30 ng/ml), GDNF (30 ng/ml), TGF-b3 ([…]) and dcAMP (2 mM, Sigma) for 15 days, as previously described Schwartzentruber et al, 2020 and Carling et al, 2020. Dopaminergic neurons were treated with compounds at concentrations of 0.1 nM, 1 nM, 3 nM, 10 nM, 30 nM and 100 nM dosing every 3 days for the last 12 days of differentiation.
(§3) iNeurons were treated every 3 days for the last 12 days of the differentiation protocol. Cells are plated in 96 well plates; for live imaging cells are incubated for one hour at 37° C. with 80 nM tetramethlyrhodamine (TMRM), 1 μM LysoTracker® Green (Invitrogen) and Hoechst Stain solution (Sigma) at 1 μM before imaging using Opera Phenix™. Cellular ATP measurements are undertaken using ATPlite kit (Perkin Elmer) as per manufacturer's instructions. Mitochondrial reactive oxygen species generation was assessed using mitochondrial NpFR2 (probe; a kind gift from Dr Liz New, University of Sydney, Australia) at 20 μM and Hoechst stain solution at 1 μM for 30 mins at 37° C., then the dyes are removed and cells images using Opera Phenix™. Images generated from the live imaging experiments were analysed using Harmony® (Perkin Elmer software). We developed protocols in order to segment nucleus, cell boundary and processes, mitochondria, lysosomes, autophagosomes. We only analysed the z projection images collected from the z stacks.

Assay [2] concerns iNeurons from sPD patients. Nature of the assay: Mitochondrial membrane potential (MMP) in iNeurons from sPD patients. The method, then: as §1, §2, §3
The subject of assay [3] is sporadic PD patient fibroblasts. Nature of the assay: Cellular ATP levels in sporadic PD patient fibroblasts, full ATP assay. To be noted: Homo sapiens, Fibroblast, 24 h, 3 sporadic PD patient fibroblasts.
Assay [4] has the same test system. Nature of the assay: Mitochondrial membrane potential (MMP, TMRM) in sporadic PD patient fibroblasts. To be noted: Homo sapiens, Fibroblast, 24 h, 3 sporadic PD patient fibroblasts.

The pEC50 is −log10 of the EC50, conventionally taken in molar units. High values mean a low EC50, low ones a high EC50. As for `C[C@H](CCCC(=O)O)[C@H]1CC[C@H]2[C@@H]3[C@@H](O)C[C@@H]4CNCC[C@]4(C)[C@H]3CC[C@]12C.Cl` [Compound 28b, 3-Aza-7β-hydroxy-25-homo-5β-cholan-25-oic acid hydrochloride], the negative logarithm of the EC50 (pEC50) is 8.30 in assay [1] (Homo sapiens, Neuron, sPD patient iNeurons, dosing every 3 days for last 12 days of differentiation); 8.09 in assay [2] (Homo sapiens, sPD patient iNeurons, dosing every 3 days for last 12 days of differentiation); 7.48 in assay [3] (8-point range 0.06 nM-300 nM); 8.39 in assay [4] (8-point range 0.06 nM-300 nM). Moreover, the “effect on mitochondrial parameters in sPD derived dopaminergic neurons” value in assay [1] (both mitochondrial parameters (Table 3)) is listed as “provides a protective effect on both mitochondrial parameters”. Besides, the “ATP normalisation (% of controls)” value in assay [1] (sPD patient iNeurons treated, untreated sPD patients 50) was 94.3 % of controls. For the same compound, the “MMP normalisation (% of controls)” value in assay [2] (sPD patient iNeurons treated, untreated sPD patients 52) is 76 % of controls. Besides, in assay [3] (max response with highest dose of compound (300 nM), read-out: ATP % of vehicle, top %), the Emax at 0.3 µM turned out to be 138%. Besides, the activity at 60 pM in assay [3] (max response with lowest dose of compound (0.06 nM), read-out: ATP % of vehicle, bottom %) was 94.6%; in assay [4] (max response with lowest dose of compound (0.06 nM), read-out: MMP % of vehicle, bottom %), 92.8%. The Emax in assay [4] (max response with highest dose of compound (300 nM), read-out: MMP % of vehicle, top %) amounted to 101%.
